Experimental data taken from publication PMC8112869, “Therapeutic inhibition of keratinocyte TRPV3 sensory channel by local anesthetic dyclonine” (eLife, 2021).

Key:
Type in all cases: cell-based
[1] = molecular target: T1, TRPV3 N643A (Mus musculus, UniProt Q8K424, N643A); assay: Whole-cell recording of TRPV3 mutant N643A in HEK 293T cells; conditions: 2-APB (1 mM)-evoked, –60 mV, read-out: IC50 for inhibition of TRPV3 mutant
T1 construct: expressed in transfected cells; host or cells: HEK 293T
Text: (§1) The WT mouse TRPV3 (mTRPV3), human TRPV3 (hTRPV3), rat TRPV1, rat TRPV2, rat TRPM8, and mouse TRPA1 cDNAs were generously provided by Dr. Feng Qin (State University of New York at Buffalo, Buffalo, USA). The GFP-mTRPV3 WT and the mutants (mTRPV3-G573S and mTRPV3-G573C) in pcDNA4/TO vector were gifts from Dr. Michael X Zhu (The University of Texas Health Science Center at Houston, Houston, USA). The WT fTRPV3 was kindly provided by Dr. Makoto Tominaga (Department of Physiological Sciences, SOKENDAI, Okazaki, Japan). All mutations were made using the overlap-extension polymerase chain reaction method as previously described ([Tian et al., 2019]). The resulting mutations were then verified by DNA sequencing. […]
(§2) Conventional whole-cell and excised patch-clamp recording methods were used. […] For a subset of recordings, currents were amplified using an Axopatch 200B amplifier (Molecular Devices, Sunnyvale, CA) and recorded through a BNC-2090/MIO acquisition system (National Instruments, Austin, TX) using QStudio developed by Dr. Feng Qin at State University of New York at Buffalo. […] As determined by the conductance tests, the solution around a patch under study was fully controlled by the application of a flow rate of 100 μl/min or greater. […]

[2] = molecular target: T2, TRPV3 L642A (Mus musculus, UniProt Q8K424, L642A); assay: Whole-cell recording of TRPV3 mutant L642A in HEK 293T cells; conditions: 2-APB (1 mM)-evoked, –60 mV, read-out: IC50 for inhibition of TRPV3 mutant
T2 construct: expressed in transfected cells; host or cells: HEK 293T
Text: as §1, §2

[3] = molecular target: T3, TRPV3 (G573S) (Mus musculus, UniProt Q8K424, G573S); assay: Whole-cell currents of TRPV3 (G573S) expressed in T-Rex 293 cells
T3 construct: expressed in transfected cells; host or cells: T-Rex 293
Text: as §1, §2

[4] = molecular target: T4, TRPV3 I644W (Mus musculus, UniProt Q8K424, I644W); assay: Whole-cell recording of TRPV3 mutant I644W in HEK 293T cells; conditions: 2-APB (1 mM)-evoked, –60 mV, read-out: IC50 for inhibition of TRPV3 mutant
T4 construct: expressed in transfected cells; host or cells: HEK 293T
Text: as §1, §2

T3 sequence (Q8K424 whole entry G573S): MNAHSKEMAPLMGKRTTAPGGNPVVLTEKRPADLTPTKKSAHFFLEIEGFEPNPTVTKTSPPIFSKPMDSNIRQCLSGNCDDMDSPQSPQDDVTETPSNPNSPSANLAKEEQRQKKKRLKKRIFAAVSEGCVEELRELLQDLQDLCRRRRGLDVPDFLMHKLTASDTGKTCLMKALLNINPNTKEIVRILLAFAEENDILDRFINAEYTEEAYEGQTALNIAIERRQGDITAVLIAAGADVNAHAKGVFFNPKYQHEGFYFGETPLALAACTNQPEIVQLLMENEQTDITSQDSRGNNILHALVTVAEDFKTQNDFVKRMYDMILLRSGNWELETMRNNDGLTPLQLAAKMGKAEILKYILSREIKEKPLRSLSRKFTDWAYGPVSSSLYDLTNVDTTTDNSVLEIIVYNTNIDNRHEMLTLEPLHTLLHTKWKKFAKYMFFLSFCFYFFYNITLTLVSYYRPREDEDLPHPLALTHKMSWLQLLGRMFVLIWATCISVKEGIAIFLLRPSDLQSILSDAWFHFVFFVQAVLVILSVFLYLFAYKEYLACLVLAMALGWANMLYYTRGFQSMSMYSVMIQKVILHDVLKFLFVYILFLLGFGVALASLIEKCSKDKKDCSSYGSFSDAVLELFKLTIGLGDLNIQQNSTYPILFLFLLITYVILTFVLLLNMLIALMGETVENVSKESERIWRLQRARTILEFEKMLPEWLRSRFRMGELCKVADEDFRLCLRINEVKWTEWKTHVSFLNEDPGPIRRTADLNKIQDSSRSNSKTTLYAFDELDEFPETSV
T1 sequence (Q8K424 whole entry N643A): as the sequence (Q8K424 whole entry G573S) above, with S573G, N643A counted along it
T4 sequence (Q8K424 whole entry I644W): as the sequence (Q8K424 whole entry G573S) above, with S573G, I644W counted along it
T2 sequence (Q8K424 whole entry L642A): as the sequence (Q8K424 whole entry G573S) above, with S573G, L642A counted along it

CCCCOc1ccc(C(=O)CCN2CCCCC2)cc1 [dyclonine]
IC50 [1]: 37.7 ± 5.1 µM
IC50 [2]: 0.25 ± 0.02 µM
reduction of spontaneous activities ([3]; 10 μM dyclonine, –60 mV, leak subtracted with 20 μM RR): 74% ± 3%
300 μM 2-APB-evoked responses, of control level ([3]; presence of dyclonine): 10% ± 2%
IC50 [4]: 26.1 ± 2.8 µM
